We go through two molecules from publication PMC8804275 (IBRO Neuroscience Reports, 2022).

In test [1] the target is T1, hCB1R (Homo sapiens, UniProt P21554). Kind of test: HitHunter cAMP assay, inhibition of forskolin-stimulated cAMP. The settings on record: 10 µM FSK, 90 min, 37 °C; agonism mode without CP55,940; allosteric ago-PAM. Type of test: cell-based. A general note: cAMP levels reflect the balance of adenylyl cyclase and phosphodiesterase activity.
Test [2] addresses T1, hCB1R. Kind of test: PathHunter βarrestin2 recruitment assay. Type of test: cell-based. The settings on record: 90 min, 37 °C; agonism mode without CP55,940; allosteric ago-PAM. (In general: Activated receptors often draw arrestin, which recruitment assays turn into a signal.)

T1 sequence (P21554 whole entry): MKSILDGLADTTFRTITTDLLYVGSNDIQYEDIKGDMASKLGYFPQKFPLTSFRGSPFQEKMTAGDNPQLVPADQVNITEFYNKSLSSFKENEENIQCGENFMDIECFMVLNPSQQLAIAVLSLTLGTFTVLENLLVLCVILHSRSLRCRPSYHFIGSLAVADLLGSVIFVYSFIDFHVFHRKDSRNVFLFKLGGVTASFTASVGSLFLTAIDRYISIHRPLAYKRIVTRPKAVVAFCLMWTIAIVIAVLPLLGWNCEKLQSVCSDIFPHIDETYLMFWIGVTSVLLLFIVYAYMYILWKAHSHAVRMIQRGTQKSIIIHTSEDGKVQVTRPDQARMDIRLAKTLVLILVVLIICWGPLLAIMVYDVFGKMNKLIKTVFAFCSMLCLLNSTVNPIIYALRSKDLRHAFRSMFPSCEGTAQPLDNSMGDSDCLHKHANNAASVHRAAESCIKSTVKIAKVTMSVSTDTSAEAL

Usually EC50 stands for the midpoint of the concentration-response curve. A lower EC50 goes with greater potency. In the case of GAT591, the figures for the EC50 on hCB1R [1] and at hCB1R [2] were 4.1 nM and 1300 nM, respectively.
Consider `O=[N+]([O-])CC(c1ccccc1F)c1c(-c2cccc(F)c2)[nH]c2c(F)cccc12` (stereo not shown) [GAT593], for which the EC50 at hCB1R [1] is 45 nM; at hCB1R [2], above 10000 nM.
